The source made the active and inactive calls. The rule behind the calls is not given here.
Legend:
[1] = target: Lysine-specific histone demethylase 1A (Homo sapiens) (UniProt O60341); type: cell-based; settings: HCT-116, dose 0.063-1 µM, time 48.0 hrs
[2] = target: Lysine-specific histone demethylase 1A (Homo sapiens) (UniProt O60341); assay: Inhibition of LSD1 (unknown origin) demethylase-mediated FAD-dependent H2O2 production at 1 uM by fluorescence coupling enzyme assay
[3] = target: T1, Histone deacetylase (Homo sapiens) (UniProt Q13547+O15379+Q9UBN7+Q92769+Q9UQL6+Q8WUI4+Q9BY41+Q96DB2+P56524+Q9UKV0+Q969S8); type: cell-based; settings: HCT-116, dose 0.063-1 µM, time 48.0 hrs
[4] = target: T1, Histone deacetylase (Homo sapiens); type: cell-based; settings: HCT-116, dose 0.063-1 µM, time 48.0 hrs; remark: listed apart in the source
[5] = target: Lysine-specific histone demethylase 1A (Homo sapiens) (UniProt O60341); type: tissue-based; settings: Colorectal cancer organoid, dose 0.313-5 µM, time 10.0 day
[6] = target: T1, Histone deacetylase (Homo sapiens); assay: Inhibition of HDAC in patient-derived human Colorectal cancer organoid assessed as increase in acetyl-tubulin level at 0.313 to 5 uM treated for 10 days by Western blot analysis; type: tissue-based; settings: dose 0.313-5 µM, time 10.0 day
[7] = target: T1, Histone deacetylase (Homo sapiens); assay: Inhibition of HDAC in patient-derived human Colorectal cancer organoid assessed as increase in acetyl-histone H3 level at 0.313 to 5 uM treated for 10 days by Western blot analysis; type: tissue-based; settings: dose 0.313-5 µM, time 10.0 day
[8] = target: Lysine-specific histone demethylase 1A (Homo sapiens) (UniProt O60341); type: tissue-based; settings: Colorectal cancer organoid, dose > 2.5 µM, time 10.0 day
[9] = target: Lysine-specific histone demethylase 1A (Homo sapiens) (UniProt O60341); assay: Inhibition of LSD1 in patient-derived human Colorectal cancer organoid at >2.5 uM treated for 10 days by IHC analysis; type: tissue-based; settings: time 10.0 day

Compound | inhibition [1] | inhibition [2] | inhibition [3] | inhibition [4] | inhibition [5] | inhibition [6] | inhibition [7] | inhibition [8] | inhibition [9]
O=C(CCCCCCC(=O)Nc1ccccc1)NO | Active; Compound Might Have Indirect Lsd1 Inhibitory Effect |  |  |  |  |  |  |  | 
O=C(/C=C/c1cccc(S(=O)(=O)N[C@@H]2C[C@H]2c2ccccc2)c1)NO | Active | Active; More Effective Than Standard Lsd1 Inhibitor At All Concentrations Tested | Dose-dependent-effect | Dose-dependent-effect | Active | Active | Active | Active | Active
